Experimental data from PubChem BioAssay (NCI).
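Method: 48-hour compound exposure of cells in 96-well plates, five concentrations, linear interpolation of endpoints. TGI: concentration producing complete growth inhibition.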

Columns and labels:
Assay in all cases: NCI-60 cell line screen, 48 h
[1] = system: ACHN renal
[2] = system: KM12 colon
[3] = system: NCI-H522 lung
[4] = system: OVCAR-3 ovarian
[5] = system: OVCAR-5 ovarian
[6] = system: OVCAR-8 ovarian
[7] = system: SK-MEL-2 melanoma
[8] = system: SK-MEL-28 melanoma
[9] = system: U251 CNS
[10] = system: UO-31 renal
[11] = system: RPMI-8226 leukemia
[12] = system: SF-295 CNS
[13] = system: CAKI-1 renal
[14] = system: MCF7 breast

Compound | TGI [1] [µM] | TGI [2] [µM] | TGI [3] [µM] | TGI [4] [µM] | TGI [5] [µM] | TGI [6] [µM] | TGI [7] [µM] | TGI [8] [µM] | TGI [9] [µM] | TGI [10] [µM] | TGI [11] [µM] | TGI [12] [µM] | TGI [13] [µM] | TGI [14] [µM]
O=C1OC(c2ccccc2)(c2ccccc2)CC1CN1CCOCC1 (stereo not drawn) | 32 | 30.8 | 22.8 | 28.9 | 67.5 | > 100 | 36.5 | 32.9 | 49.7 | 99.4 |  |  |  | 
CCOC(=O)C(NC(=O)NCc1ccc(F)cc1)C(F)(F)F (stereo not drawn) | > 100 |  |  |  | > 100 | > 100 | > 100 | > 100 | > 100 | > 100 | > 100 |  |  | 
CC(C)(C)c1cc(N=NC(=S)NCc2ccccc2)cc(C(C)(C)C)c1O | > 100 |  |  | > 100 |  | > 100 | > 100 | > 100 | > 100 | > 100 | > 100 | > 100 |  | 
CC(=O)/C(=C/N1C(=O)CC(=O)NC1=S)C(=O)Nc1ccccc1C | > 100 | > 100 |  | 96.4 | > 100 | > 100 | > 100 | > 100 | > 100 | > 100 |  | > 100 | > 100 | > 100
Cc1nn(-c2ccccc2)c2nc3c(c(C)nn3-c3ccccc3)c(-c3ccccc3Br)c12 | > 100 | > 100 | > 100 | > 100 | > 100 | > 100 |  | > 100 | > 100 | > 100 | > 100 | > 100 | > 100 | > 100
CC(C(O)c1ccccc1)N(C)/N=N/c1nc2c([nH]1)c(=O)n(C)c(=O)n2C (stereo not drawn) | > 100 | > 100 |  | > 100 | > 100 | > 100 | > 100 | > 100 | > 100 | > 100 | > 100 | > 100 | > 100 | > 100
CC[N+](CC)(CC)Cc1cn(S(=O)(=O)c2ccccc2)c2ccccc12 | > 100 | > 100 | > 100 | > 100 | > 100 | > 100 | > 100 | > 100 | > 100 | > 100 | > 100 | > 100 | > 100 | 
Cc1nc(Nc2ccccc2)sc1C(=O)NNC(N)=O | > 100 | > 100 | > 100 | > 100 | > 100 | > 100 | > 100 | > 100 | > 100 | > 100 | > 100 | > 100 | > 100 | 
O=C(O/N=C1/CCC/C1=C\c1ccccc1)c1ccccc1 | > 100 | > 100 | > 100 | > 100 | > 100 | > 100 | > 100 | > 100 | > 100 |  | > 100 | > 100 | > 100 | 
